Assay results from publication PMC11540889, “In Vitro Cytotoxicity of Fluorinated Quaternary Ammonium Salts in Colorectal Cancer Cells and In Silico Pharmacology” (Advances in Pharmacological and Pharmaceutical Sciences, 2024).
Where two headings read alike, the source gives them in different places.

Tests used:
[1] = system: CRC cell lines SW48, SW620, and SW948; test: MTT cytotoxicity across CRC cell lines (pooled statements, selectivity between lines); format: cell-based; details: for Index of selectivity SW48 vs. SW620: IS = CC50 SW48 ÷ CC50 SW620; for Index of selectivity SW948 vs. SW48: IS = CC50 SW948 ÷ CC50 SW48; for Index of selectivity SW948 vs. SW620: IS = CC50 SW948 ÷ CC50 SW620
Experimental: (§1) The compounds were solubilized in dimethyl sulfoxide (DMSO, Fischer Chemical, NJ, USA) at 50,000 μg/mL and stored at −20°C until use. From the stock solution, six serial 1:2 double dilutions of each compound were prepared to start with concentrations of 100, 50, 25, 12.5, 6.25, and 3.125 μg/mL, respectively. 5-FU, one of the conventional drugs to treat CRC [34], was used as an antitumor compound control at concentrations ranging between 800 and 0.625 μM.
(§2) SW948 (Dukes' Type C, Grade III, premetastatic colorectal adenocarcinoma—CCL-237), SW48 (Dukes' Type C, Grade IV, noninvasive colorectal adenocarcinoma—CCL231), and SW620 (Dukes' Type C, Grade IV invasive colorectal adenocarcinoma—CCL227) (American Type Culture Collection Manassas, VA, USA) were maintained in standard conditions at 37°C, without a CO2 atmosphere. PBMCs and MCRT were used as nontumoral control cells. PBMCs were obtained by healthy donors, separated using Histopaque-1077 (Sigma-Aldrich) and cultured in RPMI-1640 medium (Sigma-Aldrich) supplemented with 10% SFB and 1% penicillin/streptomycin [46]. In turn, MCRT were obtained from healthy BALB/c mice; for this, mice were euthanized with CO2 after previous sedation, the colorectal tissue removed, cleaned up, and cut into 2 × 2 mm pieces, suspended in supplemented DMEM, and used immediately after collection. […] Moreover, the inclusion of PBMC also served to assess the systemic toxicity of FQAS.
(§3) The cytotoxic activity of synthesized FQASs and QASs was studied by measuring cell viability/mortality, determined with the MTT (3-(4,5-dimethylthiazol-2-yl)-2,5-diphenyl tetrazole bromide) method (VWR Chemicals and Reagents Avantor), upon exposure of each cell line to six serial dilutions of the different compounds independently. Unexposed cells were included as viability controls, and cells exposed to 5-FU were included as cytotoxicity controls. Briefly, cells were adjusted to 200,000 cells/mL in the corresponding supplemented culture medium, and 100 μL (20,000 cells/well) were dispensed into each 96-well cell culture plate (Nunc, Thermo Fisher Scientific). Twelve hours after seeding the monolayer, 100 μL dilution of each compound was added to each well; the plates containing CRC were incubated at 37°C in the absence of CO2, while plates with PBMCs and MCRT were incubated at 37°C and 5% CO2 atmosphere. For MCRT, each piece was placed into each well of a 96-well plate and exposed to each dilution of the FQASs and QASs. After 48 h of incubation, 30 μL/well of MTT (5 mg/mL) was added, and plates were left at 37°C for 3 h, protected from light. After this time, 100 μL/well of DMSO was added to solubilize the formazan crystals formed. Plates were read at 570 nm on a Varioskan plate reader (Thermo Fisher), and nonspecific absorbance was corrected by subtracting the optical densities (OD) of the blank solutions corresponding to the supplemented culture media (RPMI 1640, DMEM, or L-15 media) and 0.5% DMSO. Each concentration of the FQASs, QASs, and controls was evaluated in duplicate in three independent experiments.
(§4) The percentages of viability (equation (1)) and mortality (equation (2)) were calculated with the net OD:(1) % viability=OD treated cell÷nontreated cells×100, (2) % mortality=100−% viability.
The %mortality data for each compound concentration was recorded, and the median cytotoxic concentration (CC50), corresponding to the concentration at which 50% of cell death occurs, was calculated using GraphPad Prism 8 software (GraphPad, Software, Inc., La Jolla, CA, USA). […]

[2] = MTT cytotoxicity, peripheral blood mononuclear cells; format: cell-based; details: human, peripheral blood mononuclear cells (PBMC); PBMC, nontumoral control, MTT, 48 h, mean ± SD
Experimental: as §1, §2, §3, §4
(§5) The %mortality data for each compound concentration was recorded, and the median cytotoxic concentration (CC50), corresponding to the concentration at which 50% of cell death occurs, was calculated using GraphPad Prism 8 software (GraphPad, Software, Inc., La Jolla, CA, USA). […] Lastly, the index of selectivity (IS) was calculated by dividing the CC50 value obtained for control cells (MCRT and PBMCs) by the CC50 value obtained for each CRC cell phenotype using the formula: IS = CC50 (MCRT or PBMC) ÷ CC50 (SW948, SW48 or SW620).

[3] = Ex vivo MTT cytotoxicity, healthy murine colorectal tissue; format: cell-based, BALB/c mice; details: BALB/c, mouse, healthy murine colorectal tissue (MCRT) pieces, ex vivo, nontumoral control, MTT, 48 h, mean ± SD
Experimental: as §1, §2, §3, §4, §5

[4] = system: SW48 (Dukes' Type C, Grade IV, noninvasive colorectal adenocarcinoma); test: MTT cytotoxicity, SW48 cells; details: for CC50: Homo sapiens, SW48, 48 h, SW48 cells, MTT, 48 h, mean ± SD; for Index of selectivity MCRT / SW48: IS = CC50 MCRT ÷ CC50 SW48; for Index of selectivity PBMC / SW48: IS = CC50 PBMC ÷ CC50 SW48
Experimental: as §1, §2, §3, §4, §5

[5] = system: SW948 (Dukes' Type C, Grade III, premetastatic colorectal adenocarcinoma); test: MTT cytotoxicity, SW948 cells; details: for CC50: Homo sapiens, SW948, 48 h, SW948 cells, MTT, 48 h, mean ± SD; for Index of selectivity MCRT / SW948: IS = CC50 MCRT ÷ CC50 SW948; for Index of selectivity PBMC / SW948: IS = CC50 PBMC ÷ CC50 SW948
Experimental: as §1, §2, §3, §4, §5

[6] = system: SW620 (Dukes' Type C, Grade IV invasive colorectal adenocarcinoma); test: MTT cytotoxicity, SW620 cells; details: for CC50: Homo sapiens; for Index of selectivity MCRT / SW620: IS = CC50 MCRT ÷ CC50 SW620; for Index of selectivity PBMC / SW620: IS = CC50 PBMC ÷ CC50 SW620
Experimental: as §1, §2, §3, §4, §5

SMILES | Index of selectivity SW48 vs. SW620 [1] | Index of selectivity SW948 vs. SW48 [1] | Index of selectivity SW948 vs. SW620 [1] | CC50 at 48 h [2] [µM] | CC50 at 48 h [3] [µM] | CC50 [4] [µM] | Index of selectivity MCRT / SW48 [4] | Index of selectivity PBMC / SW48 [4] | CC50 [5] [µM] | Index of selectivity MCRT / SW948 [5] | Index of selectivity PBMC / SW948 [5] | CC50 ([6]; 48 h) [µM] | Index of selectivity MCRT / SW620 [6] | Index of selectivity PBMC / SW620 [6] | CC50 ([6]; SW-620, read-out: LC50 (Figure 2c)) [µM]
C[N+](C)(C)CCCC=C(c1cccc(F)c1)c1cccc(F)c1 [Compound 1] | 1.7 | 2.0 | 3.3 | 29.8 ± 2.4 | 212 ± 4 | 105 ± 12 | 2.0 | 0.3 | 211 ± 7.4 | 1.0 | 0.1 | 63.7 ± 15.3 | 3.3 | 0.5 | –
C[N+](C)(CI)CCCC=C(c1ccc(F)cc1)c1ccc(F)cc1 [Compound 2] | 2.7 | 1.0 | 2.8 | 35.6 ± 6.6 | 205 ± 14.5 | 75.7 ± 14.2 | 2.7 | 0.47 | 77.9 ± 9.1 | 2.6 | 0.5 | – | 7.3 | 1.3 | 28.1
C[N+](C)(CCl)CCCCC=C(c1ccc(F)cc1)c1ccc(F)cc1 [Compound 3] | 1.9 | 0.4 | 0.8 | 39.7 ± 7.7 | 130 ± 20 | 125 ± 5.1 | 1.0 | 0.32 | 52.9 ± 13.8 | 2.5 | 0.8 | 64.5 ± 8.1 | 2.0 | 0.6 | –
C[N+](C)(CI)CCCCC=C(c1ccc(F)cc1)c1ccc(F)cc1 [Compound 4] | 1.9 | 0.7 | 1.4 | 45.1 ± 7.3 | 107 ± 4.5 | 100 ± 3 | 1.1 | 0.45 | 72.8 ± 12.8 | 1.5 | 0.6 | 52.5 ± 5.6 | 2.0 | 0.9 | –
